Where two headings read alike, the source gives them in different places.
Experiments:
sEH [1] = molecular target: T1, sEH (Homo sapiens, UniProt P34913); assay: sEH inhibitory activity, fluorescence assay with PHOME substrate; assay type: biochemical; conditions: for inhibition at 100 µM / Inhibition on sEH at 100 µM (%): 100 µM compound, tested three times; for IC50: PHOME substrate, dose-dependent response curve
T1 sequence (P34913 1-555): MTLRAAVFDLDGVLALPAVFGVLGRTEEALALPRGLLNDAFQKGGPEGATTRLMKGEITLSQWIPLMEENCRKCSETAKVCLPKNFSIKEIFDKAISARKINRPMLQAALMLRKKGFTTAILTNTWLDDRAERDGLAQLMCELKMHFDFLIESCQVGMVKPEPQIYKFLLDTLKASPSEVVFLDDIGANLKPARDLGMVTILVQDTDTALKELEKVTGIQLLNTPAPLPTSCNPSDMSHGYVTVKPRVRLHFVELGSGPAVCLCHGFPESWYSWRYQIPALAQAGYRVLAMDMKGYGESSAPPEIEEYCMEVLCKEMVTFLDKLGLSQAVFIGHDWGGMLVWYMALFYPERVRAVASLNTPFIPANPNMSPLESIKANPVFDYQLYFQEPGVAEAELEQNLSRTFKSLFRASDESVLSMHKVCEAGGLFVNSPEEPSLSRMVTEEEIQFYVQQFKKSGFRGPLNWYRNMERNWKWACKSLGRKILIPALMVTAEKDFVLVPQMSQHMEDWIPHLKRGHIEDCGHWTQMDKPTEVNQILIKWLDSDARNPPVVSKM

[2] = test system: LPS-induced NO production in macrophage RAW 264.7 cells (iNOS); assay: Inhibition of LPS-induced NO production in RAW 264.7 macrophages (Griess reaction, measure of iNOS activity); assay type: cell-based; conditions: for IC50: means ± SE, n = 3;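 on all read-outs here: cells pretreated with compound for 2 h, then stimulated 24 h with LPS at 500 ng/ml, supernatant nitrite quantified by absorbance at 550 nm against a nitrite standard curve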
sEH [3] = molecular target: T1, sEH; assay: sEH binding mechanism, Dixon and Lineweaver-Burk plots at different substrate and inhibitor concentrations; assay type: biochemical; conditions: for Ki: Dixon plots; for Type of sEH inhibition: Dixon / Lineweaver-Burk plots
[4] = Mus musculus, 50 µM compound, LPS-stimulated RAW264.7 cells, read-out: Inhibition of NO production at 50 µM (%)
[5] = 50 µM compound, LPS-stimulated RAW264.7 cells
[6] = Mus musculus, RAW264.7, LPS-stimulated RAW264.7 cells
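Wherever Cytotoxicity in RAW 264.7 cells (MTT) is given: viability gauged by mitochondrial reductase turning MTT into formazan, optical density read at 570 nm, with untreated control cells set as 100% viability.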

SMILES | inhibition at 100 µM (sEH [1]) | inhibition at 50 µM [2, 4] | Cytotoxicity in RAW 264.7 cells (MTT) (RAW 264.7 cells) | IC50 (sEH [1]) | further results
O=C(/C=C/c1ccc(O)cc1)O[C@@H]1C[C@@](O)(C(=O)O)C[C@@H](O)[C@@H]1O [Compound 2] | 4.4 ± 3.2% | 19.7% | did not exhibit significant cytotoxicity | – | –
COC(=O)[C@@]1(O)C[C@@H](O)[C@H](O)[C@H](OC(=O)/C=C/c2ccc(O)c(O)c2)C1 [Compound 4] | 68.3 ± 3.4% | – | – | 30.4 ± 0.8 µM | Inhibition of NO production at 50 µM (%) [2, 5]: N.I
O=C1c2c(O)cc(O)cc2O[C@H](c2ccc(O)cc2)[C@H]1O[C@@H]1O[C@H](CO)[C@@H](O)[C@H](O)[C@H]1O [Compound 13] | 22.7 ± 3.9% | – | did not exhibit significant cytotoxicity | – | Inhibition of NO production at 50 µM (%) [2, 5]: N.I
OC[C@H]1O[C@@H](OCCc2ccccc2)[C@H](O)[C@@H](O)[C@@H]1O [Compound 34] | 13.3 ± 0.2% | 12.8% | did not exhibit significant cytotoxicity | – | –
CC[C@H](/C=C/[C@@H](C)[C@H]1CC[C@H]2[C@@H]3CC=C4C[C@@H](O[C@@H]5O[C@H](CO)[C@@H](O)[C@H](O)[C@H]5O)CC[C@]4(C)[C@H]3CC[C@]12C)C(C)C [Compound 39] | – | – | did not exhibit significant cytotoxicity | – | Inhibition on sEH at 100 µM (%) (sEH [1]): N.I; inhibition at 50 µM ([2]; Mus musculus, RAW264.7, read-out: Inhibition of NO production at 50 µM (%)): 20.3%
COc1cc(C(=O)O)ccc1O [Compound 26] | 21.3 ± 0.2% | 11.4% | – | – | –
OC[C@H]1O[C@@H](OC[C@@H](O)c2ccc(O)cc2)[C@H](O)[C@@H](O)[C@@H]1O [Compound 35] | 10.5 ± 3% | 15.9% | did not exhibit significant cytotoxicity | – | –
O=C1C[C@@H](c2ccc(O)cc2)Oc2cc(O)ccc21 [Compound 11] | 34.5 ± 2.5% | 10.8% | – | – | –
O=C(/C=C/c1ccc(O)c(O)c1)O[C@@H]1C[C@@](O)(C(=O)O)C[C@@H](O)[C@@H]1O [Compound 1] | 74.3 ± 3.4% | 5.7% | did not exhibit significant cytotoxicity | 41.9 ± 1.2 µM | –
C[C@@H]1C[C@H]2[C@@H]3CCC4=CC(=O)C=C[C@]4(C)[C@@]3(F)[C@@H](O)C[C@]2(C)[C@@]1(O)C(=O)CO [Dexamethasone, reference compound] | – | – | – | – | IC50 ([2]; LPS-stimulated RAW264.7 cells): 10.5 ± 0.1 µM; IC50 [2, 6]: 10.5 ± 0.13 µM
COC(=O)C1(O)CC(O)C(OC(=O)C=Cc2ccc(O)c(O)c2)C(O)C1 (centres unmarked) [Compound 8] | – | 25.2% | did not exhibit significant cytotoxicity | 9.4 ± 0.2 µM | Ki (sEH [3]): 13.7 µM
O=c1ccc2cc(O)c(O)cc2o1 [Compound 19] | – | 50.1% | did not exhibit significant cytotoxicity | 4.5 ± 0.2 µM | Ki (sEH [3]): 10.2 µM; IC50 [2, 6]: 47.3 ± 6.9 µM
O=C(O)/C=C/c1ccc(O)cc1 [Compound 29] | 39.7 ± 4.4% | 13.4% | – | – | –
C[C@@H]1O[C@@H](OC[C@H]2O[C@@H](Oc3c(-c4ccc(O)cc4)oc4cc(O)cc(O)c4c3=O)[C@H](O)[C@@H](O)[C@H]2O)[C@H](O)[C@H](O)[C@H]1O [Compound 15] | 60.2 ± 0.5% | 3% | did not exhibit significant cytotoxicity | 18.3 ± 0.2 µM | –
COc1ccc(C(=O)O)cc1O [Compound 27] | 17.5 ± 0.2% | 24% | did not exhibit significant cytotoxicity | – | –
O=C1CC(c2ccc(O)c(O)c2)c2c(O)cc3c(c2O1)CC(O)C(c1ccc(O)c(O)c1)O3 (centres unmarked) [Compound 22] | 31.9 ± 4.5% | 18.3% | did not exhibit significant cytotoxicity | – | –
O=C(/C=C\c1ccc(O)cc1)O[C@@H]1C[C@@](O)(C(=O)O)C[C@@H](O)[C@@H]1O [Compound 9] | 32.3 ± 2.7% | – | did not exhibit significant cytotoxicity | – | Inhibition of NO production at 50 µM (%) [2, 5]: N.I
O=c1c(O)c(-c2ccc(O)cc2)oc2cc(O)cc(O)c12 [Compound 10, kaempferol] | 58 ± 2% | 93% | did not exhibit significant cytotoxicity | 6.8 ± 2.4 µM | Type of sEH inhibition (sEH [3]): Non-competitive; Ki (sEH [3]): 18.6 µM; IC50 [2, 6]: 15.6 ± 1.6 µM
COc1cc(C(=O)O)cc(OC)c1O [Compound 23] | 10.7 ± 3% | 14.1% | – | – | –

SMILES | inhibition at 100 µM (sEH [1]) | inhibition at 50 µM [2, 4] | Cytotoxicity in RAW 264.7 cells (MTT) (RAW 264.7 cells) | IC50 (sEH [1]) | further results
C[C@@H]1O[C@@H](OC[C@H]2O[C@@H](Oc3c(-c4ccc(O)c(O)c4)oc4cc(O)cc(O)c4c3=O)[C@H](O)[C@@H](O)[C@@H]2O)[C@H](O)[C@H](O)[C@H]1O [Compound 16] | – | – | did not exhibit significant cytotoxicity | 6.2 ± 0.1 µM | Inhibition on sEH at 100 µM (%) (sEH [1]): 95.2 ± 0.2%; Type of sEH inhibition (sEH [3]): non-competitive; Inhibition of NO production at 50 µM (%) [2, 5]: 26.2%
C[C@@H]1CC[C@]2(C(=O)O)CC[C@]3(C)C(=CC[C@@H]4[C@@]5(C)C[C@@H](O)[C@@H](O)C(C)(C)[C@@H]5CC[C@]43C)[C@@H]2[C@]1(C)O [Compound 38] | 39.5 ± 4.1% | 8.9% | did not exhibit significant cytotoxicity | – | –
CC/C=C\CCO[C@@H]1O[C@H](CO)[C@@H](O)[C@H](O)[C@H]1O [Compound 37] | 24.6 ± 3.1% | 14.5% | did not exhibit significant cytotoxicity | – | –
O=c1c(O[C@@H]2O[C@H](CO)[C@@H](O)[C@H](O)[C@H]2O)c(-c2ccc(O)cc2)oc2cc(O)cc(O)c12 [Compound 14] | 78 ± 1% | 9% | did not exhibit significant cytotoxicity | 21.3 ± 0.3 µM | –
O=C(C=Cc1ccc(O)c(O)c1)OC1C(O)CC(O)(C(=O)O)CC1O (centres unmarked) [Compound 7] | 69.2 ± 0.9% | 10.7% | did not exhibit significant cytotoxicity | 50.8 ± 1.5 µM | –
CCCCOC(=O)[C@@]1(O)C[C@@H](O)[C@H](O)[C@H](OC(=O)/C=C/c2ccc(O)c(O)c2)C1 [Compound 5] | 77.7 ± 2.6% | 53% | did not exhibit significant cytotoxicity | 33.1 ± 0.3 µM | IC50 [2, 6]: 45.3 ± 1.4 µM
COc1cc([C@@H]2Oc3c(OC)cc(CCCO)cc3[C@H]2CO)cc(OC)c1O [Compound 21] | – | 16.2% | did not exhibit significant cytotoxicity | – | Inhibition on sEH at 100 µM (%) (sEH [1]): N.I
Oc1ccc(/C=C/c2cc(O)cc(O)c2)cc1 [Compound 32] | – | 77.7% | did not exhibit significant cytotoxicity | 6.8 ± 0.9 µM | IC50 [2, 6]: 30.6 ± 1.8 µM
O=Cc1ccc(O)c(O)c1 [Compound 24] | 38.6 ± 0.2% | 22.2% | did not exhibit significant cytotoxicity | – | –
COc1cc(/C=C/C(=O)O[C@@H]2C[C@@](O)(C(=O)O)C[C@@H](O)[C@@H]2O)ccc1O [Compound 3] | 67.1 ± 3.4% | 26.1% | did not exhibit significant cytotoxicity | 60.7 ± 1.9 µM | –
CC1OC(OCC2OC(OCCc3ccccc3)C(O)C(O)C2O)C(O)C(O)C1O (centres unmarked) [Compound 36] | – | 20.9% | did not exhibit significant cytotoxicity | – | Inhibition on sEH at 100 µM (%) (sEH [1]): N.I
O=C(CO)c1ccc(O)cc1 [Compound 28] | 22.1 ± 0.9% | 6.2% | did not exhibit significant cytotoxicity | – | –
Oc1ccc(-c2ccc(O)c(O)c2)cc1O [Compound 33] | 19.4 ± 0.8% | 3% | did not exhibit significant cytotoxicity | – | –
O=C(O)c1ccc(O)cc1 [Compound 25] | 42 ± 3.9% | 17% | did not exhibit significant cytotoxicity | – | –
O=C(O)/C=C/c1ccc(O)c(O)c1 [Compound 30] | – | 21.5% | did not exhibit significant cytotoxicity | 21 ± 0.4 µM | –
COc1cc(/C=C/C(=O)O)ccc1O [Compound 31] | 43 ± 1.1% | 10.6% | – | – | –
COC(=O)[C@]1(O)C[C@@H](O)[C@@H](O)[C@H](OC(=O)/C=C/c2ccc(O)c(O)c2)C1 [Compound 6] | 111 ± 1.9% | 1.8% | – | 14.7 ± 0.4 µM | –
COc1cc([C@H]2Oc3c(OC)cc(CCCO)cc3[C@@H]2CO[C@@H]2O[C@H](CO)[C@@H](O)[C@H](O)[C@H]2O)ccc1O [Compound 20] | – | 13.9% | did not exhibit significant cytotoxicity | – | Inhibition on sEH at 100 µM (%) (sEH [1]): N.I

Source: paper PMC6407587, “Inhibition potential of phenolic constituents from the aerial parts of Tetrastigma hemsleyanum against soluble epoxide hydrolase and nitric oxide synthase” (Journal of Enzyme Inhibition and Medicinal Chemistry, 2019)
